What was measured:
[1] = target: Non-receptor tyrosine-protein kinase TYK2 (Homo sapiens, UniProt P29597); assay: Inhibition of TYK2 (unknown origin)
[2] = target: Platelet-derived growth factor receptor beta (Homo sapiens, UniProt P09619); assay: Inhibition of PDGFRbeta (unknown origin)
[3] = target: Receptor tyrosine-protein kinase erbB-2 (Homo sapiens, UniProt P04626); assay: Inhibition of HER2 (unknown origin)
[4] = target: Tyrosine-protein kinase ZAP-70 (Homo sapiens, UniProt P43403); assay: Inhibition of ZAP70 (unknown origin)
[5] = target: Fibroblast growth factor receptor 4 (Homo sapiens, UniProt P22455); assay: Inhibition of FGFR4 (unknown origin) incubated for 60 mins by caliper microfluidic mobility shift technology based assay
Angiopoietin-1 receptor = Angiopoietin-1 receptor (Homo sapiens, UniProt Q02763); assay: Inhibition of TIE2 (unknown origin)
Ephrin type-A receptor 1 = Ephrin type-A receptor 1 (Homo sapiens, UniProt P21709); assay: Inhibition of EphA1 (unknown origin)
[6] = target: Receptor tyrosine-protein kinase erbB-4 (Homo sapiens, UniProt Q15303); assay: Inhibition of HER4 (unknown origin)
Huh-7 [7] = assay: Antitumor activity against human HuH7 cells xenografted in nude BALB/c mouse assessed as inhibition of tumor growth at 10 mg/kg bid for 14 days and measured twice per week relative to untreated control; format: functional; details: Huh-7, 336 h, read-out: TGI
[8] = target: High affinity nerve growth factor receptor (Homo sapiens, UniProt P04629); assay: Inhibition of TRKA (unknown origin)
Chain of High affinity nerve growth factor receptor (P04629 whole entry): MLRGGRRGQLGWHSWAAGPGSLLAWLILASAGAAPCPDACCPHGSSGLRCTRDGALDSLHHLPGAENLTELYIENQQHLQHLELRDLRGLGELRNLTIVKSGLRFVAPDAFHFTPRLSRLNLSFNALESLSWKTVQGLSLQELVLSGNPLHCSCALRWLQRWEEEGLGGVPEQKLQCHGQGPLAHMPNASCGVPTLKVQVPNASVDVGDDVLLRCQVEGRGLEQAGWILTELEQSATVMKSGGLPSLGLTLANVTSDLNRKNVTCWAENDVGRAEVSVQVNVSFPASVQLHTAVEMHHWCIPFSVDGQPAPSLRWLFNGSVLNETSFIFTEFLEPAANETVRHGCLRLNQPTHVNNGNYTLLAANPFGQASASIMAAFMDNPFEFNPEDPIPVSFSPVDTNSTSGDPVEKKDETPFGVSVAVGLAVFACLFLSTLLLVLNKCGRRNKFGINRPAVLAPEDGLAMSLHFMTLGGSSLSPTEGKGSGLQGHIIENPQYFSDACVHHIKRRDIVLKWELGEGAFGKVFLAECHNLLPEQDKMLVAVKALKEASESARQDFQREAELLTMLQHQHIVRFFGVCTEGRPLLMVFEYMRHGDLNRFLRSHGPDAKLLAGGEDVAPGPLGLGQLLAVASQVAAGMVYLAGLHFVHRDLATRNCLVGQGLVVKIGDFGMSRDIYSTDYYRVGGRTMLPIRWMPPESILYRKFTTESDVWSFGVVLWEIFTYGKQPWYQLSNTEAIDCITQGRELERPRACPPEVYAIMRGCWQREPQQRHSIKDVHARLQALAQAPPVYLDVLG

[9] = Toxicity in male BALB/c mouse assessed as effect on body weight at 50 to 450 mg/kg/day, ig dosed once daily for 4 weeks followed by rehabilitation for another 28 days; format: organism-based; details: in vivo, po, 672 h
[10] = target: T1, Fibroblast growth factor receptor 1 (Homo sapiens, UniProt P11362); assay: Inhibition of FGFR1 (unknown origin) incubated for 60 mins by caliper microfluidic mobility shift technology based assay
T1 sequence (P11362 whole entry): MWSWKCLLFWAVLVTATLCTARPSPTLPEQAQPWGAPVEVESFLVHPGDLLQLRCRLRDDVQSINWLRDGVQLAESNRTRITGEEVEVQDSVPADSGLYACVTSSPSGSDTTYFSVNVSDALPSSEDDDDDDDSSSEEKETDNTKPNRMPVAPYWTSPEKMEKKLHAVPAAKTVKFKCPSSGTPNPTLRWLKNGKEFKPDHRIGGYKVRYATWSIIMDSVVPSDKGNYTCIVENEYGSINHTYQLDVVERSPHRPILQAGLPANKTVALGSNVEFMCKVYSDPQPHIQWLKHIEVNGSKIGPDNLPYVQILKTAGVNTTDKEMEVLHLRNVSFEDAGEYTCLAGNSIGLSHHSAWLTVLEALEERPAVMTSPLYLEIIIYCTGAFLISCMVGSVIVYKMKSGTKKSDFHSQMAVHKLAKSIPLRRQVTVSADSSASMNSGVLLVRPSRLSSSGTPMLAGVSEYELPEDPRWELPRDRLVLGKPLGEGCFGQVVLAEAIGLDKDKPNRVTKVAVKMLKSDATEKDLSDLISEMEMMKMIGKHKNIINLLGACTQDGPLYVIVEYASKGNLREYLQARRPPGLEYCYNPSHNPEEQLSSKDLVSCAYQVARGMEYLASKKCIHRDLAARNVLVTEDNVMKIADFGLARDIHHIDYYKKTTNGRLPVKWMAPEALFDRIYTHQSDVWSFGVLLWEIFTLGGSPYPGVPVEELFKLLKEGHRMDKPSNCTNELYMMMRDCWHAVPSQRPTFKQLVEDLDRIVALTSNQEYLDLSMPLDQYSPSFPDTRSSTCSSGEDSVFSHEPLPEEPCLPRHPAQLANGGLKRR

[11] = Toxicity in male BALB/c mouse assessed as effect on clinical pathology parameters at 200 to 2000 mg/kg, ig administered as single dose measured after 14 days; format: organism-based; details: in vivo, po, 336 h
[12] = target: MAP kinase-activated protein kinase 3 (Homo sapiens, UniProt Q16644); assay: Inhibition of MAPKAPK3 (unknown origin)
[13] = target: T1, Fibroblast growth factor receptor 1; assay: Inhibition of FGFR1 (unknown origin)
[14] = target: Proto-oncogene tyrosine-protein kinase receptor Ret (Homo sapiens, UniProt P07949); assay: Inhibition of RET (unknown origin)
[15] = target: Fibroblast growth factor receptor 2 (Homo sapiens, UniProt P21802); assay: Inhibition of FGFR2 (unknown origin)
Chain of Fibroblast growth factor receptor 2 (P21802 whole entry): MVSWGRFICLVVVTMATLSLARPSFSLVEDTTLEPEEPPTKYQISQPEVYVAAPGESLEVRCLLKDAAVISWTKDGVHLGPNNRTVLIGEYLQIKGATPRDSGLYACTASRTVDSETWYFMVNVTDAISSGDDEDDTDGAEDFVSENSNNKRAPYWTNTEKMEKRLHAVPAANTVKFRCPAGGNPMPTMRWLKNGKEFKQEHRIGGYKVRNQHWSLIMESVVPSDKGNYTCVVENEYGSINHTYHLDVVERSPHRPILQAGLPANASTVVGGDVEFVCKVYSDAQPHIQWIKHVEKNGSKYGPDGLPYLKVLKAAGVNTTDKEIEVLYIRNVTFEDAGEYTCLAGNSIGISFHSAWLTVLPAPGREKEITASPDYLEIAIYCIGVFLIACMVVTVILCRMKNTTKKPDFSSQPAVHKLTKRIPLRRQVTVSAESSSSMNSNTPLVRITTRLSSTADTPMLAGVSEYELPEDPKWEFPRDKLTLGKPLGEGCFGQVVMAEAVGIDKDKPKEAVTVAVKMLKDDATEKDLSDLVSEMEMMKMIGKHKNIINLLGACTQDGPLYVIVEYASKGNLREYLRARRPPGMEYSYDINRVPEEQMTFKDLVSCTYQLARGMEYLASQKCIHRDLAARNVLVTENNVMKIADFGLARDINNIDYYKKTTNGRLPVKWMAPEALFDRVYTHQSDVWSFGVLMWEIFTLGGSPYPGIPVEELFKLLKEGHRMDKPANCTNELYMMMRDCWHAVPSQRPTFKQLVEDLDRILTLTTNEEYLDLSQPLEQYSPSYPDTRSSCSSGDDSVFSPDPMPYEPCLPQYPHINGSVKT

SK-HEP1 = assay: Antiproliferative activity against human SKHEP1 cells without FGFR4 gene amplification assessed as inhibition of cell proliferation incubated for 72 hrs by CellTiter-Glo method; format: functional, cell-based; details: SK-HEP1, 72 h
[16] = target: Platelet-derived growth factor receptor alpha (Homo sapiens, UniProt P16234); assay: Inhibition of PDGFRalpha (unknown origin)
[17] = target: Receptor-type tyrosine-protein kinase FLT3 (Homo sapiens, UniProt P36888); assay: Inhibition of FLT3 (unknown origin)
[18] = target: Proto-oncogene tyrosine-protein kinase ROS (Homo sapiens, UniProt P08922); assay: Inhibition of ROS (unknown origin)
[19] = Toxicity in female BALB/c mouse at 200 to 2000 mg/kg, ig administered as single dose measured after 14 days; format: organism-based; details: in vivo, po
[20] = target: Leukocyte tyrosine kinase receptor (Homo sapiens, UniProt P29376); assay: Inhibition of LTK (unknown origin)
[21] = target: Vascular endothelial growth factor receptor 1 (Homo sapiens, UniProt P17948); assay: Inhibition of FLT1 (unknown origin)
Hep 3B2 [22] = assay: Antitumor activity against human Hep3B cells xenografted in nude BALB/c mouse assessed as inhibition of tumor growth at 3 mg/kg bid for 14 days and measured twice per week relative to untreated control; format: functional; details: 336 h, read-out: TGI
Focal adhesion kinase 1 = Focal adhesion kinase 1 (Homo sapiens, UniProt Q05397); assay: Inhibition of FAK (unknown origin)
[23] = Toxicity in female BALB/c mouse at 50 to 450 mg/kg/day, ig dosed once daily for 4 weeks followed by rehabilitation for another 28 days; format: organism-based; details: in vivo, po
[24] = target: Macrophage-stimulating protein receptor (Homo sapiens, UniProt Q04912); assay: Inhibition of RON (unknown origin)
[25] = target: Muscle, skeletal receptor tyrosine-protein kinase (Homo sapiens, UniProt O15146); assay: Inhibition of MUSK (unknown origin)
[26] = target: Tyrosine-protein kinase JAK2 (Homo sapiens, UniProt O60674); assay: Inhibition of JAK2 (unknown origin)
[27] = target: ALK tyrosine kinase receptor (Homo sapiens, UniProt Q9UM73); assay: Inhibition of ALK (unknown origin)
[28] = target: Insulin-like growth factor 1 receptor (Homo sapiens, UniProt P08069); assay: Inhibition of IGF1R (unknown origin)
Hep 3B2 [29] = assay: Antitumor activity against human Hep3B cells xenografted in nude BALB/c mouse assessed as inhibition of tumor growth at 30 mg/kg bid for 14 days and measured twice per week relative to untreated control; format: functional; details: 336 h, read-out: TGI
[30] = target: Vascular endothelial growth factor receptor 3 (Homo sapiens, UniProt P35916); assay: Inhibition of FLT4 (unknown origin)
[31] = target: Tyrosine-protein kinase JAK3 (Homo sapiens, UniProt P52333); assay: Inhibition of JAK3 (unknown origin)
Huh-7 [32] = assay: Antitumor activity against human HuH7 cells xenografted in nude BALB/c mouse assessed as inhibition of tumor growth at 30 mg/kg bid for 14 days and measured twice per week relative to untreated control; format: functional; details: Huh-7, 336 h, read-out: TGI
[33] = Toxicity in male BALB/c mouse at 200 to 2000 mg/kg, ig administered as single dose measured after 14 days; format: organism-based; details: in vivo, po
[34] = Toxicity in female BALB/c mouse assessed as effect on clinical pathology parameters at 200 to 2000 mg/kg, ig administered as single dose measured after 14 days; format: organism-based; details: in vivo, po, 336 h
[35] = target: Epidermal growth factor receptor (Homo sapiens, UniProt P00533); assay: Inhibition of EGFR (unknown origin)
Hep 3B2 [36] = assay: cells; details: Homo sapiens, Hep3B, 72 h
[37] = target: Tyrosine-protein kinase receptor UFO (Homo sapiens, UniProt P30530); assay: Inhibition of AXL (unknown origin)
[38] = target: Vascular endothelial growth factor receptor 2 (Homo sapiens, UniProt P35968); assay: Inhibition of KDR (unknown origin)
Insulin receptor = Insulin receptor (Homo sapiens, UniProt P06213); assay: Inhibition of INSR (unknown origin)
Chain of Insulin receptor (P06213 28-758 limits assumed): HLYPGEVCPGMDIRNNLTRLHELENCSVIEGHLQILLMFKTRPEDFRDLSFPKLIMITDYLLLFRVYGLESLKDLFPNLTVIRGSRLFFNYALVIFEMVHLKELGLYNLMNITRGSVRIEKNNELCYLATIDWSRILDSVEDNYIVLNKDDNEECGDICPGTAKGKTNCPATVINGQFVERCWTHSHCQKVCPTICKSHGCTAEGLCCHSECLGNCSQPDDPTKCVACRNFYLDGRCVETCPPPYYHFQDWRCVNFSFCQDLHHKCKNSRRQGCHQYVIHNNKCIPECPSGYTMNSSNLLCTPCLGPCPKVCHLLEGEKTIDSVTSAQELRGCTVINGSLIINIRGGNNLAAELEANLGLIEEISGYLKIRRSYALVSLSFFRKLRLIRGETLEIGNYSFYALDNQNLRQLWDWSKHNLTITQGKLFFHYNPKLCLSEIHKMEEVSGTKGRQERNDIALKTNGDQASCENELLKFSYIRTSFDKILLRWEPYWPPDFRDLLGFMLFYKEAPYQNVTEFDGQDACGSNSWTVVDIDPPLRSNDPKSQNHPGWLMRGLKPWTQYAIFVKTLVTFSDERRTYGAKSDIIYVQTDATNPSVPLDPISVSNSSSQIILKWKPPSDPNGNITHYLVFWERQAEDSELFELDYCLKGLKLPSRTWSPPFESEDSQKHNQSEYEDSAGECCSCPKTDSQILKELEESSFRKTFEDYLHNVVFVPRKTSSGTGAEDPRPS
Chain of Insulin receptor (P06213 763-1382 limits assumed): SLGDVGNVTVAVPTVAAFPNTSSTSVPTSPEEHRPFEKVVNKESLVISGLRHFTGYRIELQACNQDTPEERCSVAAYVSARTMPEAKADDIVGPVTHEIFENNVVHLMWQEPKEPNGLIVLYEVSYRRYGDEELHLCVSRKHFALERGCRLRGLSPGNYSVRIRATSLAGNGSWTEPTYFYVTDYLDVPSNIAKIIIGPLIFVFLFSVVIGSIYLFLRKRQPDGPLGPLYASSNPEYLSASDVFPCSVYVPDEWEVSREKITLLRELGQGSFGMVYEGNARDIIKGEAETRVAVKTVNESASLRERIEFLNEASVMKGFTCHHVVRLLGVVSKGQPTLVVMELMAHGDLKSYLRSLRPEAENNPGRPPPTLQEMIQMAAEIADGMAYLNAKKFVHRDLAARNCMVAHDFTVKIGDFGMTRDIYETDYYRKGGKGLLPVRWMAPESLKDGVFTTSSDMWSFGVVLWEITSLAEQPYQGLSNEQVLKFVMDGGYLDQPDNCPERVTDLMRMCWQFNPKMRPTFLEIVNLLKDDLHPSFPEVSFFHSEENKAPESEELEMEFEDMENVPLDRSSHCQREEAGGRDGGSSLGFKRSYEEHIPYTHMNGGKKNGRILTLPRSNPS

[39] = AUC in Sprague-Dawley rat at 5 mg/kg, ig measured after 5 mins to 24 hrs by LC-MS analysis; format: ADME, organism-based; set-up: dose 5 mg/kg, time 0.083-24 hr, route […]; details: in vivo, po
[40] = target: Fibroblast growth factor receptor 3 (Homo sapiens, UniProt P22607); assay: Inhibition of FGFR3 (unknown origin)

Chain of Platelet-derived growth factor receptor beta (P09619 whole entry): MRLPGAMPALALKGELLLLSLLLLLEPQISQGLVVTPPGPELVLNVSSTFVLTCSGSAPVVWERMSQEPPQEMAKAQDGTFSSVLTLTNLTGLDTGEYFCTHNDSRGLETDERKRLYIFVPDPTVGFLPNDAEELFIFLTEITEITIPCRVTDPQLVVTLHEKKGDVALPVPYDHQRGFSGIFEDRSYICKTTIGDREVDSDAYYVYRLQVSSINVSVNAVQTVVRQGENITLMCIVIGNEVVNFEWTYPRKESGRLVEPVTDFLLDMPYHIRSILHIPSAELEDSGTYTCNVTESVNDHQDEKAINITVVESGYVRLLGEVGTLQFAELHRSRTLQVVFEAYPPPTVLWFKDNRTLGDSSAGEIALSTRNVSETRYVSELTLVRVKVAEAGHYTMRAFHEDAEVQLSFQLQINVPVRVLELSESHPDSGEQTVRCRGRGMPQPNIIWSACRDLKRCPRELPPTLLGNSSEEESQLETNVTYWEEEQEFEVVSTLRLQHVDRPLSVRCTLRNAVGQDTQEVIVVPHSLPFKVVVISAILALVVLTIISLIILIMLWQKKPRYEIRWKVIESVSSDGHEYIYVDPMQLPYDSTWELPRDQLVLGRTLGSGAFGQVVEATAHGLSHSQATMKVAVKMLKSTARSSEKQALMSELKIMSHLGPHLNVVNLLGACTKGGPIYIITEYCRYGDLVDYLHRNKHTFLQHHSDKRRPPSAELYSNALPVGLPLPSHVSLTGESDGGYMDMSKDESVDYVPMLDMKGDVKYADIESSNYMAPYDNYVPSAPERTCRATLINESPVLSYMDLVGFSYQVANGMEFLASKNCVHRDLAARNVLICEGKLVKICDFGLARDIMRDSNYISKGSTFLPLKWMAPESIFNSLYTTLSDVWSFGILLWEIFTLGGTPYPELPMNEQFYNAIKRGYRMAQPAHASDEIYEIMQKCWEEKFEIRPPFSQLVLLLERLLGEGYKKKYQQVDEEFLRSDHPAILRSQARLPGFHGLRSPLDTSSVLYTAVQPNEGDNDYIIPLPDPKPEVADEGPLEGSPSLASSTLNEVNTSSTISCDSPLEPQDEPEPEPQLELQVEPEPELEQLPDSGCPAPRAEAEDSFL

**Q.** With `COC[C@@H](C)Nc1cc(NC(=O)N2CCCc3cc(CN4CCCCOC4=O)c(C=O)nc32)ncc1C#N` as the compound, how does the IC50 [1] read?
**A.** > 10 µM

**Q.** What about the IC50 [2] of the same compound?
**A.** > 10 µM

**Q.** What about the IC50 [3] of the same compound?
**A.** > 10 µM

**Q.** And the IC50 [4]?
**A.** > 10 µM

**Q.** What about the IC50 [5] of the same compound?
**A.** 0.0015 µM

**Q.** And the IC50 (Angiopoietin-1 receptor)?
**A.** > 10 µM

**Q.** What about the IC50 (Ephrin type-A receptor 1) of the same compound?
**A.** > 10 µM

**Q.** And the IC50 [6]?
**A.** > 10 µM

**Q.** And the inhibition in vivo at 10 mg/kg (Huh-7 [7])?
**A.** 28.1%

**Q.** And the IC50 [8]?
**A.** > 10 µM

**Q.** What about the Activity [9] of the same compound?
**A.** Non-Toxic

**Q.** And the IC50 [10]?
**A.** > 10 µM

**Q.** What about the Activity [11] of the same compound?
**A.** Non-Toxic

**Q.** And the IC50 [12]?
**A.** > 10 µM

**Q.** What about the IC50 [13] of the same compound?
**A.** > 10 µM

**Q.** What about the IC50 [14] of the same compound?
**A.** > 10 µM

**Q.** And the IC50 [15]?
**A.** > 10 µM

**Q.** And the IC50 (SK-HEP1)?
**A.** > 10 µM

**Q.** And the IC50 [16]?
**A.** > 10 µM

**Q.** What about the IC50 [17] of the same compound?
**A.** > 10 µM

**Q.** What about the IC50 [18] of the same compound?
**A.** > 10 µM

**Q.** What about the NOAEL at 336 h [19] of the same compound?
**A.** 2000 mg/kg/day

**Q.** And the IC50 [20]?
**A.** > 10 µM

**Q.** What about the IC50 [21] of the same compound?
**A.** > 10 µM

**Q.** What about the inhibition in vivo at 3 mg/kg (Hep 3B2 [22]) of the same compound?
**A.** 69.8%

**Q.** What about the IC50 (Focal adhesion kinase 1) of the same compound?
**A.** > 10 µM

**Q.** What about the NOAEL at 672 h [23] of the same compound?
**A.** 150 mg/kg

**Q.** What about the IC50 [24] of the same compound?
**A.** > 10 µM

**Q.** What about the IC50 [25] of the same compound?
**A.** > 10 µM

**Q.** And the IC50 [26]?
**A.** > 10 µM

**Q.** What about the IC50 [27] of the same compound?
**A.** > 10 µM

**Q.** And the IC50 [28]?
**A.** > 10 µM

**Q.** And the inhibition in vivo at 30 mg/kg (Hep 3B2 [29])?
**A.** 165%

**Q.** And the IC50 [30]?
**A.** > 10 µM

**Q.** What about the IC50 [31] of the same compound?
**A.** > 10 µM

**Q.** What about the inhibition in vivo at 30 mg/kg (Huh-7 [32]) of the same compound?
**A.** 62.7%

**Q.** What about the NOAEL at 336 h [33] of the same compound?
**A.** 2000 mg/kg/day

**Q.** And the Activity [34]?
**A.** Non-Toxic

**Q.** And the IC50 [35]?
**A.** > 10 µM

**Q.** What about the IC50 (Hep 3B2 [36]) of the same compound?
**A.** 0.0011 µM

**Q.** What about the IC50 [37] of the same compound?
**A.** > 10 µM

**Q.** What about the IC50 [38] of the same compound?
**A.** > 10 µM

**Q.** And the IC50 (Insulin receptor)?
**A.** > 10 µM

**Q.** And the AUC [39]?
**A.** 9460 ng·h/mL

**Q.** And the IC50 [40]?
**A.** > 10 µM

— ChEMBL document CHEMBL4339212, “Novel 7-formyl-naphthyridyl-ureas derivatives as potential selective FGFR4 inhibitors: Design, synthesis, and biological activity studies” (Bioorg Med Chem, 2019)
